This is an account of results in publication PMC3510187, “1-Anilino-8-Naphthalene Sulfonate (ANS) Is Not a Desirable Probe for Determining the Molten Globule State of Chymopapain” (PLoS ONE, 2012).

This assay deals with T1, chymopapain (Carica papaya, UniProt P14080).
T1 construct: native mature enzyme from papaya latex, commercial (Sigma C8526), dialysed; monomer; acid-unfolded states in the assay
Nature of the assay: isothermal titration calorimetry (two sets of independent sites). To be noted: read-out: High affinity binding site / K1 (M^-1). The text has this:
isothermal titration calorimetry (two sets of independent sites) on chymopapain
For orientation: In ITC the heat of successive injections is recorded.

T1 sequence (P14080 135-352): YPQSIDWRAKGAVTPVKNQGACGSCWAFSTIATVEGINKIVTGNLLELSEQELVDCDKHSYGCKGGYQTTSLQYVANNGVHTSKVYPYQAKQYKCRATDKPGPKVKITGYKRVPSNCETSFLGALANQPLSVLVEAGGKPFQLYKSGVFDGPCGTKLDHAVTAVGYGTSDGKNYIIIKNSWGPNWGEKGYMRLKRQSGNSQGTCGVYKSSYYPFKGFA

Take `O=S(=O)(O)c1cccc2cccc(Nc3ccccc3)c12` [1-anilino-8-naphthalene sulfonate]: the Kd was 2.94 µM.
